According to patent US8232308B2, “Methods for treating a disease in which Rho kinase is involved” (UBE Industries, Ltd., priority 2003, dated 2012):

What was measured:
activated ROCK II = target: T1, activated ROCK II (Rattus norvegicus, UniProt Q62868); assay: Test for Evaluation of Inhibiting Activity to Rho Kinase; assay type: biochemical; conditions: S6 Kinase Substrate Peptide, [γ-32P]ATP, 30° C. for 15 minutes, Ki=IC50/(1+S/Km)
T1 construct: purchased Upstate Biotechnology 14-338
T1 sequence (Q62868 11-550 limits assumed): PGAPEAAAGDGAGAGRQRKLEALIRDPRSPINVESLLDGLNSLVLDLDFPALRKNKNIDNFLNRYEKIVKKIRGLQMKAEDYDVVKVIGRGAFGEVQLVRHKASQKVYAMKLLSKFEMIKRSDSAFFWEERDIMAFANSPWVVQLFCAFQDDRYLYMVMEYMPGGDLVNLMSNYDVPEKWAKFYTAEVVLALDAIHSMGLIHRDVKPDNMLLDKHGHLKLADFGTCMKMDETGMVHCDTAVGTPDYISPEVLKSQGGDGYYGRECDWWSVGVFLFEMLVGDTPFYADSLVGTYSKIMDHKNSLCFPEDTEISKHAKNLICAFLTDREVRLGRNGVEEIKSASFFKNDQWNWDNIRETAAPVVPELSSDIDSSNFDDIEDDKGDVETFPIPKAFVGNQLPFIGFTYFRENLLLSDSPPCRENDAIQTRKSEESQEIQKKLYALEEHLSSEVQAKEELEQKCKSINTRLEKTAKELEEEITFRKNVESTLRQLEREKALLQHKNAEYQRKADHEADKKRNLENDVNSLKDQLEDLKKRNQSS

Row | Ki (activated ROCK II) | SMILES | melting point
1 | 146 nM | CC(C)(N)c1ccc(-c2ccc3[nH]ncc3c2OCC2CC2)nc1.Cl.Cl.Cl [Compound 5-73, 5-[5-(1-Amino-1-methylethyl)pyridin-2-yl]-4-cyclo-propylmethyloxy-1H-indazole trihydrochloride] | 270 to 272 °C (dec.)
2 |  | CN(C)/C=C/C(=O)c1c(-c2ccc(C(C)(C)NC(=O)OC(C)(C)C)cc2)ccc2nn(C3CCCCO3)cc12 (stereo not shown) [Compound 29, 5-[4-(1-tert-butoxycarbonylamino-1-methylethyl)phenyl]-4-(3-dimethylaminoacryloyl)-2-(tetra-hydropyran-2-yl)-2H-indazole] | 191 to 194 °C
3 |  | CC(C)(C)OC(=O)NC(C)(C)c1ccc(-c2ccc3nn(C4CCCCO4)cc3c2-c2cc[nH]n2)cc1 (stereo not shown) [Compound 30, 5-[4-(1-tert-butoxycarbonylamino-1-methylethyl)phenyl]-4-(pyrazol-3-yl)-2-(tetrahydropyran-2-yl)-2H-indazole] | 99 to 105 °C
